Experimental data taken from patent US20230329282A1, “Application of 1-Deoxynojirimycin in Feed for Improving Nutritional Value and Sensory Effect of Rabbit Meat Products” (priority 2023, published 2023).
Marks after values point to notes of the source that are not given here.

Tests used:
[1] = system: New Zealand white rabbits; settings: cited from earlier work
[2] = system: New Zealand white rabbits; test: Fatty acid composition of rabbit meat by GC/MS; assay type: in vivo; settings: 28 d
Text: The single-factor completely randomized test design is adopted. 36 45-day-old healthy New Zealand white rabbits (male) with the average weight of (1.05±0.04) kg are selected and randomly divided into 3 groups, and each group has 12 replicates with 1 rabbit per replicate. A control group is fed with a basal diet, an L-DNJ group is fed with the basal diet+0.14 g/kg DNJ, and an H-DNJ group is fed with the basal diet+0.28 g/kg DNJ. The diet is uniformly mixed to be prepared into cylindrical particles with the diameter of 6 mm and the length of 1 cm. The preliminary trial period is 14 d, and the trial period is 28 d. 10 g of meat sample is crushed, total fat is extracted after freeze-drying and converted to fatty acid methyl ester using a mixture of boron trifluoride, hexane and methanol (35:20:45 v/v), and then the fatty acid composition and content are measured with a gas chromatograph-mass spectrometer GC/MS (Model 7890-5975, Agilent Technologies, Inc.) with a 60 m×0.25 mm×0.25 μm capillary column. Gas chromatographic conditions are set as follows: the injector temperature is 220° C., and the detector temperature is 275° C.; and the initial column chamber temperature is 140° C. for 5 min, then increased to 240° C. at a rate of 4° C./min and maintained at 240° C. for 15 min. Finally, the fatty acid is measured with a […]. The ionization energy is 70 eV, the ion source temperature is 200° C., and the scanning range is 50-500 m/z. The retention time of each peak in the chromatogram is compared with that of a mixed standard of 37 fatty acid methyl esters (B25881, Shanghai Yuanye Bio-technology Co., Ltd.) to determine the properties of each peak. Three measurements are made for each sample, and the results are averaged.

[3] = system: New Zealand white rabbits; test: Nutritional ingredients of muscle (moisture, crude protein, ether extract); assay type: in vivo; settings: 28 d
Text: The single-factor completely randomized test design is adopted. 36 45-day-old healthy New Zealand white rabbits (male) with the average weight of (1.05±0.04) kg are selected and randomly divided into 3 groups, and each group has 12 replicates with 1 rabbit per replicate. A control group is fed with a basal diet, an L-DNJ group is fed with the basal diet+0.14 g/kg DNJ, and an H-DNJ group is fed with the basal diet+0.28 g/kg DNJ. The diet is uniformly mixed to be prepared into cylindrical particles with the diameter of 6 mm and the length of 1 cm. The preliminary trial period is 14 d, and the trial period is 28 d.
The rabbits are deprived of food (but not water) on the night of the end of the experiment, and after weighing in the next morning, 8 rabbits with similar weight are selected from each group and slaughtered. The longissimus dorsi muscles of the rabbits are collected, the pH values of the front, middle and back parts of the longissimus dorsi muscle are measured with a pH meter (Bante221, Shanghai Bante Instrument Co., Ltd.) having the function of automatic temperature compensation and then measured again after standing at room temperature for 24 h, and the pH decreased values of the muscle within 24 h are calculated. The pH value is the average value of the three readings. The meat color (L*, α*, b*) is measured with a TC-PIIG automatic color difference meter (Beijing Aoyike Photoelectric Instrument Co., Ltd.) on the muscle surface. The detection light source is D65 according to CIE laboratory standards, and the measurement area is 8 mm in diameter. The average value is obtained by making three measurements at each detection point.
The contents of moisture, crude protein and ether extract in the muscle are measured according to the method proposed by Zhang Liying (Zhang Liying. Feed analysis and feed quality inspection technology [M]. 4th Ed. Beijing: China Agricultural University Press, 2016).

[4] = Zhong Jingbo et al. 2021, higher additive amount
[5] = high-concentration mulberry leaf DNJ (0.4 g/kg and 2 g/kg), Zhong Jingbo et al., Xie Hui et al.
[6] = H-DNJ: basal diet+0.28 g/kg DNJ
[7] = L-DNJ: basal diet+0.14 g/kg DNJ

Question: Which results are given for `OC[C@H]1NC[C@H](O)[C@@H](O)[C@@H]1O` [DNJ, 1-deoxynojirimycin]?
Answer: brightness L* of rabbit meat [1, 4]: increase; redness α* of rabbit meat [1, 4]: no effect; activity of the duodenal amylase [1, 5]: decrease; digestibility of dry matter and ether extract in diet [1, 5]: decrease; weight gain of animals [1, 5]: slow weight gain; MUFA C16:1n7c in rabbit meat [2, 6]: 2.06%; MUFA C16:1n9c in rabbit meat [2, 6]: 0.42%; MUFA C17:1n7c in rabbit meat [2, 6]: 0.21%; MUFA C18:1n9c in rabbit meat [2, 6]: 23.01ª %; MUFA C18:1n9t in rabbit meat [2, 6]: 2.86ª %; MUFA C20:1n9t in rabbit meat [2, 6]: 0.24^a %; Monounsaturated fatty acid (MUFA) total [2, 6]: 27.13%; PUFA C16:3n4c in rabbit meat [2, 6]: 0.19ª %; PUFA C18:2n6c (linoleic acid) in rabbit meat [2, 6]: 31.77ª %; PUFA C20:2n6c in rabbit meat [2, 6]: 0.57^ab %; PUFA C20:3n6c in rabbit meat [2, 6]: 0.43%; PUFA C20:4n6c (arachidonic acid) in rabbit meat [2, 6]: 2.67ª %; PUFA C22:4n6c in rabbit meat [2, 6]: 0.31%; PUFA C22:5n6c (DPA) in rabbit meat [2, 6]: 0.13%; Polyunsaturated fatty acid (PUFA) total [2, 6]: 36.07ª %; SFA 9Methyl C14:0 in rabbit meat [2, 6]: 0.07%; SFA 12Methyl C13:0 in rabbit meat [2, 6]: 0.14^b %; SFA 13Methyl C14:0 in rabbit meat [2, 6]: 0.13ª %; SFA 14Methyl C15:0 in rabbit meat [2, 6]: 0.26%; SFA 14methyl C16:0 in rabbit meat [2, 6]: 0.10%; SFA C10:0 in rabbit meat [2, 6]: 0.25%; SFA C12:0 in rabbit meat [2, 6]: 0.92^b %; SFA C14:0 in rabbit meat [2, 6]: 2.14%; SFA C15:0 in rabbit meat [2, 6]: 0.53%; SFA C16:0 in rabbit meat [2, 6]: 26.52^b %; SFA C17:0 in rabbit meat [2, 6]: 0.52ª %; SFA C18:0 in rabbit meat [2, 6]: 5.11^b %; SFA C20:0 in rabbit meat [2, 6]: 0.11%; Saturated fatty acid (SFA) total [2, 6]: 36.75^b %; Unsaturated fatty acid (UFA) total [2, 6]: 63.20ª %; MUFA C16:1n7c in rabbit meat [2, 7]: 1.89%; MUFA C16:1n9c in rabbit meat [2, 7]: 0.51%; MUFA C17:1n7c in rabbit meat [2, 7]: 0.22%; MUFA C18:1n9c in rabbit meat [2, 7]: 20.60^b %; MUFA C18:1n9t in rabbit meat [2, 7]: 1.08^b %; MUFA C20:1n9t in rabbit meat [2, 7]: 0.16^b %; Monounsaturated fatty acid (MUFA) total [2, 7]: 24.45%; PUFA C16:3n4c in rabbit meat [2, 7]: 0.13^b %; PUFA C18:2n6c (linoleic acid) in rabbit meat [2, 7]: 28.40^b %; PUFA C20:2n6c in rabbit meat [2, 7]: 0.44^b %; PUFA C20:3n6c in rabbit meat [2, 7]: 0.15%; PUFA C20:4n6c (arachidonic acid) in rabbit meat [2, 7]: 1.61^b %; PUFA C22:4n6c in rabbit meat [2, 7]: 0.39%; Polyunsaturated fatty acid (PUFA) total [2, 7]: 31.12^b %; SFA 9Methyl C14:0 in rabbit meat [2, 7]: 0.06%; SFA 12Methyl C13:0 in rabbit meat [2, 7]: 0.30^a %; SFA 13Methyl C14:0 in rabbit meat [2, 7]: 0.12ª %; SFA 14Methyl C15:0 in rabbit meat [2, 7]: 0.27%; SFA 14methyl C16:0 in rabbit meat [2, 7]: 0.11%; SFA C10:0 in rabbit meat [2, 7]: 0.20%; SFA C12:0 in rabbit meat [2, 7]: 1.71ª %; SFA C14:0 in rabbit meat [2, 7]: 2.16%; SFA C15:0 in rabbit meat [2, 7]: 0.52%; SFA C16:0 in rabbit meat [2, 7]: 30.16ª %; SFA C17:0 in rabbit meat [2, 7]: 0.46^b %; SFA C18:0 in rabbit meat [2, 7]: 8.22ª %; SFA C20:0 in rabbit meat [2, 7]: 0.11%; Saturated fatty acid (SFA) total [2, 7]: 44.48ª %; Unsaturated fatty acid (UFA) total [2, 7]: 55.57^b %; Nutritional ingredient of muscle: Crude protein (CP) [3, 6]: 22.18; Nutritional ingredient of muscle: Ether extract (EE) [3, 6]: 0.60^c; Nutritional ingredient of muscle: Moisture [3, 6]: 75.20; Nutritional ingredient of muscle: Crude protein (CP) [3, 7]: 22.09; Nutritional ingredient of muscle: Ether extract (EE) [3, 7]: 2.50^b; Nutritional ingredient of muscle: Moisture [3, 7]: 75.93
